Target: T1, Macrophage migration inhibitory factor (Homo sapiens) (UniProt P14174)
T1 sequence (whole entry): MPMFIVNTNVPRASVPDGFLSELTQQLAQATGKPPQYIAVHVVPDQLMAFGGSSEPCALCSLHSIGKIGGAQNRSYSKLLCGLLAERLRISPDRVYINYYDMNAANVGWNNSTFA
Experiment: LYTAC activity at ASGPR/MIF (unknown origin) by cell based assay

Activity: > 1 µM
Compound: CC(=O)N[C@H]1[C@H](OCCOCCOCCNC(=O)CCOCC(COCCC(=O)NCCOCCOCCO[C@@H]2O[C@H](CO)[C@H](O)[C@H](O)[C@H]2NC(C)=O)(COCCC(=O)NCCOCCOCCO[C@@H]2O[C@H](CO)[C@H](O)[C@H](O)[C@H]2NC(C)=O)NC(=O)CNC(=O)CCCOc2ccc3nc(-c4cn(-c5ccc(O)c(F)c5)nn4)ccc3c2)O[C@H](CO)[C@H](O)[C@@H]1O

From ChEMBL document CHEMBL5120891, “Beyond Proteolysis-Targeting Chimeric Molecules: Designing Heterobifunctional Molecules Based on Functional Effectors” (J Med Chem, 2022)
